Test results from ChEMBL document CHEMBL1201862, “PubChem BioAssay data set” (2004).
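Step 1: Grow cells in 96-well plates. Step 2: Expose to compound for 48 hours at 5 concentrations. Step 3: Interpolate endpoints linearly; if unreached, use highest concentration. GI50: concentration for 50% inhibition of growth.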 Activity calls are given as the source filed them. Cut-off read from the data, not from the text of the source: active = GI50 up to about 1.1 µM and inactive = higher.

What was measured:
Test in all cases: inhibition of tumour cell growth, NCI panel, 48 h
LOX IMVI = test system: LOX IMVI
UACC-257 = test system: UACC-257
A549 = test system: A549
U-251 = test system: U-251
ACHN = test system: ACHN
EKVX = test system: EKVX
KM12 = test system: KM12
HOP-62 = test system: HOP-62
NCI-H460 = test system: NCI-H460
HOP-92 = test system: HOP-92
HT-29 = test system: HT-29
OVCAR-3 = test system: OVCAR-3
SK-MEL-2 = test system: SK-MEL-2
RXF 393 = test system: RXF 393
SN12C = test system: SN12C
SK-MEL-5 = test system: SK-MEL-5
SF-295 = test system: SF-295

Measured: GI50

CCOP(=O)(OCC)C(C(=O)OC)C(=O)C(=O)Nc1c(C)cc(Br)cc1C (stereo not given)
inactive: LOX IMVI > 100 µM | UACC-257 > 100 µM | A549 > 100 µM | U-251 > 100 µM | ACHN > 100 µM | EKVX > 100 µM | KM12 > 100 µM | HOP-62 > 100 µM | NCI-H460 > 100 µM | HOP-92 > 100 µM | HT-29 > 100 µM | OVCAR-3 > 100 µM | SK-MEL-2 > 100 µM | RXF 393 > 100 µM | SN12C > 100 µM | SK-MEL-5 > 100 µM

O=C(Cc1ccccc1)N/N=C(\C1=Nc2ccc([N+](=O)[O-])cc2NC1O)C(O)c1ccc([N+](=O)[O-])cc1 (stereo not given)
inactive: LOX IMVI 25.8 µM | UACC-257 > 100 µM | A549 > 100 µM | U-251 > 100 µM | ACHN 78 µM | EKVX > 100 µM | HOP-62 > 100 µM | NCI-H460 > 100 µM | HOP-92 > 100 µM | HT-29 > 100 µM | OVCAR-3 > 100 µM | SK-MEL-2 > 100 µM | RXF 393 > 100 µM | SF-295 53.1 µM | SN12C > 100 µM | SK-MEL-5 68.9 µM

COC(=O)C(=O)C(C(C)=O)C(=O)NCc1ccccc1 (stereo not given)
inactive: LOX IMVI 50.1 µM | UACC-257 > 100 µM | A549 > 100 µM | U-251 82.2 µM | ACHN > 100 µM | EKVX > 100 µM | KM12 > 100 µM | HOP-62 > 100 µM | NCI-H460 > 100 µM | HOP-92 > 100 µM | HT-29 > 100 µM | OVCAR-3 > 100 µM | SK-MEL-2 > 100 µM | RXF 393 > 100 µM | SF-295 > 100 µM | SN12C > 100 µM | SK-MEL-5 > 100 µM

COc1ccc2oc3c4c2c1CCC4CCC3=O (stereo not given)
inactive: LOX IMVI > 100 µM | UACC-257 16.8 µM | A549 > 100 µM | U-251 > 100 µM | ACHN > 100 µM | EKVX > 100 µM | KM12 > 100 µM | HOP-62 > 100 µM | NCI-H460 > 100 µM | HOP-92 55.7 µM | HT-29 > 100 µM | OVCAR-3 > 100 µM | SK-MEL-2 > 100 µM | RXF 393 36.1 µM | SF-295 > 100 µM | SN12C > 100 µM | SK-MEL-5 > 100 µM

O=C(O)CNS(=O)(=O)c1ccc(NCc2ccccc2)cc1
inactive: LOX IMVI > 100 µM | UACC-257 > 100 µM | A549 > 100 µM | U-251 > 100 µM | ACHN > 100 µM | EKVX > 100 µM | HOP-62 > 100 µM | NCI-H460 > 100 µM | HOP-92 > 100 µM | HT-29 > 100 µM | SK-MEL-2 > 100 µM | RXF 393 > 100 µM | SN12C > 100 µM | SK-MEL-5 > 100 µM
